Laboratory results as given in article PMC4438233, “Antibacterial effects of Traditional Chinese Medicine monomers against Streptococcus pneumoniae via inhibiting pneumococcal histidine kinase (VicK)” (Frontiers in Microbiology, 2015).
Where two headings read alike, the source gives them in different places.

Tests used:
full-length VicK protein = molecular target: T1, full-length VicK protein (Streptococcus pneumoniae, UniProt Q8DPL8); experiment: Inhibition assay for ATPase activity of VicK (Kinase-Glo Luminescent Kinase Assay); format: biochemical; settings: IC50 (inhibition of VicK ATPase activity / autophosphorylation), 6 μg VicK, 5 μM ATP
T1 construct: 6 His; made in house
T1 sequence (Q8DPL8 whole entry): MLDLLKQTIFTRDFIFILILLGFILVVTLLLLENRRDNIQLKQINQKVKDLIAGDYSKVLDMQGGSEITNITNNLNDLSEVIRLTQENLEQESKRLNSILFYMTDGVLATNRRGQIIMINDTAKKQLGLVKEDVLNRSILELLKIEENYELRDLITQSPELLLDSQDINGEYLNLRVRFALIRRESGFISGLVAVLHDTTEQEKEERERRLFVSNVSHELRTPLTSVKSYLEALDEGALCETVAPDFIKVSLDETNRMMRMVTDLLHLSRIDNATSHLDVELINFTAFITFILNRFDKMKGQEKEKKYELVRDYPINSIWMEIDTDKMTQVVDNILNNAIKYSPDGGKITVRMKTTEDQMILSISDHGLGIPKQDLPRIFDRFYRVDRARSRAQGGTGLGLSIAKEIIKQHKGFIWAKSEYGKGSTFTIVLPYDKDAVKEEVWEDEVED
Method: The inhibitory activities of the Chinese medicine monomers for the ATPase activity of the full-length VicK protein were evaluated using the Kinase-Glo™Luminescent Kinase Assay (Promega, Madison, USA). Briefly, 6 μg VicK protein was pre-incubated with a series of dilution of compounds in the reaction buffer at 37°C for 30 min. 5 μM ATP was added and incubated for another 30 min. Kinase-Glo™Reagent was also added to detect the remaining ATP recorded from luminescence measurements (RLU). In parallel, the VicK protein with no addition of compounds was used as a control, and the mixture with compounds excluding the VicK protein served as another control. The rate of protein phosphorylation (Rp) inhibition by the compounds was calculated from Equation (1).
(1) Rp=1−RLU(compound+ATP+Reagent) −RLU(compound+ATP+vick+Reagent)/RLU(ATP +Reagent)−RLU(ATP+vick+Reagent)×100%
The half maximal inhibitory concentration (IC50), which is the concentration of inhibition of 50% VicK protein autophosphorylation, was determined by GraphPad Prism 5 (Qin et al., [2006]).

S. pneumoniae NCTC7466 [1] = experiment: MIC against S. pneumoniae NCTC7466 (D39); format: cell-based; settings: Streptococcus pneumoniae, S. pneumoniae NCTC7466 (D39), read-out: MIC
Method: (§1) Minimum inhibitory concentration (MIC) assays for the antibacterial activities of the compounds were performed according to the standard […] method of the Clinical and Laboratory Standards Institute of America. MIC testing of drug-resistant S. pneumoniae, drug-resistant S. aureus, streptococci and antimicrobial combination was also performed using the same method. Briefly, the drugs were serially diluted 2-fold into eight wells with C+Y medium, yielding final concentrations ranging from […]. Then 10^6 CFU bacteria were added to each well. Inoculated medium containing 1% DMSO served as a bacterial growth control, whereas uninoculated medium served as a sterility control. The plates were incubated at 37°C for 12–16 h. […] The experiment was repeated three times.

pneumococcal strains = experiment: MIC against clinical pneumococcal strains (penicillin susceptible, intermediate, resistant); format: cell-based, Streptococcus pneumoniae; settings: for MIC50 / MIC90: Streptococcus pneumoniae; for MIC50: read-out: MIC of pneumococcal strains, MIC50; for MIC90: read-out: MIC of pneumococcal strains, MIC90
Method: as §1

S. pyogenes = experiment: MIC against S. pyogenes; format: cell-based; settings: Streptococcus pyogenes; S. pyogenes clinical isolate; 10^6 CFU/ml; read-out: MIC
Method: as §1

S. mitis = experiment: MIC against S. mitis; format: cell-based; settings: Streptococcus mitis; S. mitis clinical isolate; 10^6 CFU/ml; read-out: MIC
Method: as §1

S. mutans = experiment: MIC against S. mutans; format: cell-based; settings: Streptococcus mutans; S. mutans clinical isolate; 10^6 CFU/ml; read-out: MIC
Method: as §1

S. pseudopneumoniae = experiment: MIC against S. pseudopneumoniae; format: cell-based; settings: Streptococcus pseudopneumoniae; S. pseudopneumoniae clinical isolate; 10^6 CFU/ml; read-out: MIC
Method: as §1

Cytotoxicity assay (MTT) = format: cell-based; settings: African green monkey, Vero cells
Method: The cytotoxicity of the drugs to Vero cells (African green monkey kidney cells) was detected as previously described (Huang et al., [2012]) with minor modifications. In 96-well cell culture plates, the cells (~10^3 cells per well) were exposed to the serially diluted drugs for 48 h. Then, relative cell numbers were assayed by co-incubation with 3-(4, 5-dimethylthiazol-2-yl)-2, 5-diphenyltetrazolium bromide for 4 h at 37°C in 5% CO2. Purple formazan salts were dissolved with DMSO after incubation. The absorbance of each well was measured at 595 nm and then converted to percentages of the control (cells treated with 1% DMSO). The concentration of the derivatives with 50% cytotoxicity for Vero cells (CC50) was calculated using GraphPad Prism 5 (San Diego, CA).

S. pneumoniae NCTC7466 [2] = experiment: Mouse sepsis model, survival time; format: in vivo, BALB/c mice; settings: i.p. infection 1 × 10^3 CFU; drug i.p. thrice a day for 3 d; untreated control 28.8 ± 1.25
Method: Female BALB/c mice (12–15 per group) aged 4–6 weeks were used to evaluate the antimicrobial effects of the compounds in vivo. In sepsis models, the mice were intraperitoneally infected with 100 μL S. pneumoniae NCTC7466 strain suspension (1 × 10^3 CFU). […] Two control groups were injected with 100 μL 1% DMSO (dissolved the drugs, negative control) or PEN (0.42 mg/kg/d, positive control) following the same injection route. The result was expressed as cumulative survival times following 7 d of observation.

[3] = tested on: Penicillin-resistant S. pneumoniae strains; experiment: Checkerboard test with penicillin against penicillin-resistant S. pneumoniae; format: cell-based, Streptococcus pneumoniae; settings: Streptococcus pneumoniae, agent alone, read-out: MIC, Alone
Method: as §1
The antimicrobial effects of different combinations of two antimicrobial agents were assayed using the checkerboard test (Bajaksouzian et al., [1997]). Each experiment was repeated thrice. The in vitro interaction between the five drugs with PEN was quantified by the fractional inhibitory concentration (FIC). The FIC index (FICI) was calculated using the following formula:
(§2) (2) FIC=FICA+FICB=[A]/MICA+[B]/MICB
(§3) where [A] and [B] are the concentrations of drugs A and B, respectively; MICA and FICA are the MIC and FIC of drug A for the organism, respectively; and MICB, and FICB are the MIC and FIC of drug B for the organism, respectively. The FIC index obtained was interpreted as follows: =0.5, synergy; FIC > 2.0, antagonism (Gupta and Kohli, [2003]).

S. pneumoniae = experiment: Checkerboard test with erythromycin or tetracycline against S. pneumoniae; format: cell-based, Streptococcus pneumoniae
Method: The antimicrobial effects of different combinations of two antimicrobial agents were assayed using the checkerboard test (Bajaksouzian et al., [1997]). Each experiment was repeated thrice. […] The FIC index (FICI) was calculated using the following formula:
as §2, §3

[4] = Penicillin intermediate (n = 12)

SMILES: CCCCCCCC=NNc1ccc([N+](=O)[O-])cc1[N+](=O)[O-] [Compound 2, Octanal 2,4-dinitrophenylhydrazone]
- IC50 (full-length VicK protein): 5.4 µM
- IC50 (full-length VicK protein; value in parentheses): 5.35 µM
- MIC (S. pneumoniae NCTC7466 [1]): 38.5 µg/mL
- MIC (S. pneumoniae NCTC7466 [1]; value in parentheses): 125 µM
- MIC of pneumococcal strains, Range (pneumococcal strains; [4]): 38 to 154 µg/mL
- MIC of pneumococcal strains, Range (pneumococcal strains; Penicillin resistant (n = 15)): 77 to 616 µg/mL
- MIC of pneumococcal strains, Range (pneumococcal strains; Penicillin susceptible (n = 7)): 76 to 152 µg/mL
- MIC50 (pneumococcal strains; [4]): 77 µg/mL
- MIC90 (pneumococcal strains; [4]): 154 µg/mL
- MIC50 (pneumococcal strains; Penicillin resistant (n = 15)): 308 µg/mL
- MIC90 (pneumococcal strains; Penicillin resistant (n = 15)): 616 µg/mL
- MIC50 (pneumococcal strains; Penicillin susceptible (n = 7)): 152 µg/mL
- MIC90 (pneumococcal strains; Penicillin susceptible (n = 7)): 152 µg/mL
- MIC (S. pyogenes): 308 µg/mL
- MIC (S. mitis): 308 µg/mL
- MIC (S. mutans): 616 µg/mL
- MIC (S. pseudopneumoniae): 154 µg/mL
- CC50 at 48 h (Cytotoxicity assay (MTT)): > 4000 µM
- Mean survival of mice ± SEM (S. pneumoniae NCTC7466 [2]): 42.1 ± 4.1 h
- MIC ([3]; strain 652336): 154 µg/mL
- MIC ([3]; strain 736007): 154 µg/mL
- MIC ([3]; strain 8364981): 77 µg/mL
- MIC ([3]; strain 12092624): 154 µg/mL
- FICI (S. pneumoniae; in combination with Erythromycin): 2
- FICI (S. pneumoniae; in combination with Tetracycline): 0.75
